Biological target: T1, amyloid beta (Aβ40) (Homo sapiens, UniProt P05067)
T1 construct: gene APP; Aβ40 peptide (40 amino acids)
Assay: ThT fluorescence fibrillization assay with purified Aβ[…]), end-point confirmed by TEM
Type: biochemical

T1 sequence (P05067 672-711 limits assumed): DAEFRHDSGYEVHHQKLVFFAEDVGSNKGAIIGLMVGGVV

O=C(CCc1ccccc1)c1ccccc1 [Dihydrochalcone]
IC50: ~2460 nM

Source: publication PMC3832475, “Discovery of Dihydrochalcone as Potential Lead for Alzheimer’s Disease: In Silico and In Vitro Study” (PLoS ONE, 2013)
